According to US9782516B2, “Tissue adhesive coatings for drug coated balloon” (ABBOTT CARDIOVASCULAR SYSTEMS INC., priority 2013, dated 2017):

Tests used:
[1] = in vivo
[2] = Percent of dose in the vessel from pure zotarolimus coated coronary balloon with stent (FIG. 2); type: in vivo
Protocol: FIG. 2 is a graph illustrating percent transfer efficiency as a function of time for pure zotarolimus coatings on a zotarolimus coated balloon.
(§1) With a stent on a coronary balloon, the percent of dose in the vessel from a pure zotarolimus coated balloon was measured at about 30 minutes, 1 day, and 7 days.

[3] = Drug transfer efficiency of drug coated balloons (Table 1); type: in vivo; details: balloon 3 × 12 mm, coronary, 20% overstretch, stent present, inflation 30 s, time point 30 minutes
Protocol: For purpose of explanation, and not limitation, of the disclosed subject matter, reference is now made to a comparative study between paclitaxel and zotarolimus.
as §1

whole blood = experiment: Acute thrombogenicity of stents in whole blood via the Chandler Loop (FIG. 5); details: drug coated stents in whole blood; compared to zotarolimus
[4] = Percent tissue uptake from paclitaxel coated balloon (FIG. 3); type: in vivo; details: porcine coronary arteries, day 1 (24 hours)

Compound	histology evidence of coating fragments adhering to a vessel wall [1]	percent drug in tissue over time ([2]; coronary balloon with stent, measured at about 30 minutes, 1 day and 7 days)	tissue uptake ([2]; pure zotarolimus coated coronary balloon with stent, 652 μg dose, day 1 (24 hours))	Percent transfer efficiency ([3]; dose 104 μg/cm^2)	Percent transfer efficiency ([3]; dose 576 μg/cm^2)	acute thrombogenicity as measured by lactate dehydrogenase (LDH) (whole blood)	tissue uptake [4]
CO[C@H]1C[C@@H]2CC[C@@H](C)[C@@](O)(O2)C(=O)C(=O)N2CCCC[C@H]2C(=O)O[C@H]([C@H](C)C[C@@H]2CC[C@H](n3cnnn3)[C@H](OC)C2)CC(=O)[C@H](C)/C=C(\C)[C@@H](O)[C@@H](OC)C(=O)[C@H](C)C[C@H](C)/C=C/C=C/C=C/1C [Pure Zotarolimus, zotarolimus]	no apparent histology evidence	rapid decrease in the percent drug in tissue	about 0.56%	4.7	5.2	–	–
CC(=O)O[C@H]1C(=O)[C@@]2(C)[C@H]([C@H](OC(=O)c3ccccc3)[C@]3(O)C[C@H](OC(=O)[C@H](O)[C@@H](NC(=O)c4ccccc4)c4ccccc4)C(C)=C1C3(C)C)[C@]1(OC(C)=O)CO[C@@H]1C[C@@H]2O [paclitaxel]	–	–	–	–	–	more thrombogenic	about 2%
